Like-named read-outs stand apart in the source and are kept apart here. Blank lines part the entries; values can stand above or below the compound they belong to.
Experiments:
HCT116 = assay: Cell viability, monolayer (2D), MTS assay; type: cell-based; settings: Homo sapiens, HCT-116, 48 h
SH-SY5Y = assay: Cell viability, monolayer (2D), MTS assay; type: cell-based; settings: Homo sapiens, 48 h
HsCDK1 = target: T1, HsCDK1 (Homo sapiens, UniProt P06493); assay: CDK1 kinase assay; type: biochemical
T1 construct: purchased ProQinase
T1 sequence (P06493 whole entry): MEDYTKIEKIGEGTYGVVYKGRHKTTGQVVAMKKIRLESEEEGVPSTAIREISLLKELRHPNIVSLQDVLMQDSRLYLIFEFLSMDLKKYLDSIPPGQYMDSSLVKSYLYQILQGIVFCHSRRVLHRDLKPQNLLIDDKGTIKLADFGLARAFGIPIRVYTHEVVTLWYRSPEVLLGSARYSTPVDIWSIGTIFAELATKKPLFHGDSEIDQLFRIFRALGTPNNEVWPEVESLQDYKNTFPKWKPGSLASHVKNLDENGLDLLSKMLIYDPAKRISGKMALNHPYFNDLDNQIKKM
T1 sequence (P14635 whole entry partner): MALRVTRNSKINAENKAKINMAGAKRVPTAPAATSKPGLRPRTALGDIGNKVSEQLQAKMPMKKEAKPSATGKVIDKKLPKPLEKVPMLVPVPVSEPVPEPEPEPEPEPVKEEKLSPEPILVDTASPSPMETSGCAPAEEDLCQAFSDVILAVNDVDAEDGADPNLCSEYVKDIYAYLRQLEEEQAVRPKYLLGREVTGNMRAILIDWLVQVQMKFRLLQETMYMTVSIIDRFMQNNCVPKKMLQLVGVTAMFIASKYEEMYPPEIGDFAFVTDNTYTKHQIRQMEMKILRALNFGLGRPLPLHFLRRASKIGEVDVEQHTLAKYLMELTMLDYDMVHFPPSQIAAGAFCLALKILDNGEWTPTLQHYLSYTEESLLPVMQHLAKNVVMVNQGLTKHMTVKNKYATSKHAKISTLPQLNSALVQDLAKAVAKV
Experimental: We therefore tested our compounds on two obvious candidates, HsCDK1 and HsPLK1 (Polo-like_kinase 1) both required for mitotic entry[50]
(§1) Values are IC50 expressed in µM and calculated from dose–response curves (each point from the curves was performed in duplicate). NR: not relevant. […]
(§2) Recombinant protein kinases were expressed and purified from E. coli (HsHaspin kinase domain aa470-798, HsCdk5/p25, RnDYRK1A kinase domain aa1-499, HsPIM1, MmCLK1) or baculovirus/Sf9 cells (HsCdk2/Cyclin A, HsCdk9/Cyclin T). Native SscCK1δ /ε and SscGSK3α/β were purified from pig brain whereas HsPlk1, HsCdk1 and HsAurora B were purchased from ProQinase and SignalChem respectively. Kinase assays were performed in specific buffers and substrates for each kinase tested in the presence of 15 µM [γ-33P] ATP (3,000 Ci/mmol, 10 mCi/ml; PerkinElmer) in a final volume of 30 µl as previously reported 51. After 30 min incubation at 30°C, the reaction mix was spotted onto GE healthcare P81 phosphocellulose paper using a FilterMate Harvester (PerkinElmer), and the filter was extensively washed with a 1% phosphoric acid solution. The wet filter-bound radioactivity was determined in the presence of 20 µl scintillation fluid (GE healthcare) with a TopCount® Scintillation and Luminescence Counter (PerkinElmer). IC50 values were calculated from dose-response curves

HCT116 spheroids = assay: Spheroid (3D) viability, CellTiter-Glo; type: cell-based, human; settings: 5 µM, Figure 4(A)
[1] = system: Haspin activity (H3T3ph) in U-2 OS cells; assay: In-cell Haspin activity, H3T3ph immunofluorescence; type: cell-based, human; settings: 24 h; for H3T3ph signal remaining in prometaphase cells (% of ctrl): 0.5 µM; for inhibition at 0.05 µM: Homo sapiens, U2OS, read-out: inhibition of cellular Haspin activity
HBL100 spheroids = assay: Spheroid (3D) viability, CellTiter-Glo; type: cell-based, human; settings: 5 µM, Figure 4(A)
HsCdk2/Cyclin A = target: T2, HsCdk2/Cyclin A (Homo sapiens, UniProt P24941); assay: CDK2 kinase assay; type: biochemical
T2 construct: made in house; host or cells: baculovirus/Sf9 cells
Experimental: (§3) Values are IC50 expressed in µM and calculated from dose–response curves (each point on the curves was performed in triplicate). Selectivity indexes (SI; in brackets) are calculated as follows: SI = IC50 kinase X/IC50 Haspin. ND: not determined. *IC50 values obtained using the ADP-Glo methodology (see Experimental section, Supplementary Material). […]
(§4) A, HsCdk9/Cyclin T). Native SscCK1δ /ε and SscGSK3α/β were purified from pig brain whereas HsPlk1, HsCdk1 and HsAurora B were purchased from ProQinase and SignalChem respectively. Kinase assays were performed in […]
(§5) mCi/ml; PerkinElmer) in a final volume of 30 µl as previously reported 51. After 30 min incubation at 30°C, the reaction mix was spotted onto GE healthcare P81 phosphocellulose paper using a FilterMate Harvester (PerkinElmer), and the filter was extensively washed with a 1% phosphoric acid solution. The wet filter-bound radioactivity was determined in the presence of 20 µl scintillation fluid (GE healthcare) with a TopCount® Scintillation and Luminescence Counter (PerkinElmer). IC50 values were calculated from dose-response curves […]
(§6) Kinase activities using the ADP-Glo methodology (ADP-Glo Kinase Assay; Promega) were assayed according to the assay described in Nguyen et al. 52 and Ibrahim et al. 53. […]

HBL100 = assay: Cell viability, monolayer (2D), MTS assay; type: cell-based; settings: Homo sapiens, HBL-100, 48 h
U-2 OS = assay: Cell viability, monolayer (2D), MTS assay; type: cell-based; settings: Homo sapiens, U2OS, 48 h
RPE-1 = assay: Cell viability, monolayer (2D), MTS assay; type: cell-based; settings: Homo sapiens, 48 h
U-2 OS cells [2] = assay: Cell cycle analysis by flow cytometry (propidium iodide); settings: for cells in S phase (% of cell total population): DMSO control 51.9%
Experimental: Figure 6. […] DNA content was measured by flow cytometry and representative profiles are shown. (B) quantification of the proportion of cells in each phase of the cell cycle from the experiment described in (A). Results are mean percentage (n = 3 independent experiments).
Cellular evaluation methods
All media were supplemented with 10% fetal calf serum (unless overwise specified) and 2 mM L-glutamine and cells were cultured
F68-pluronic acid. Cells were fixed for 2h in ice-cold ethanol, then washed twice in PBS containing 0.1% F68-pluronic acid, centrifuged at 200 g and resuspended in a PBS buffer containing 1% Triton, 100 µg/ml RNase A (Thermo Scientific) and 40 µg/ml propidium iodide (Life Technologies). DNA content was determined using a FACS Canto II (BD) and the data were analyzed using FCS Express Cytometry software (De Novo Software).
Twenty thousand events were collected in each run.

melanoma cancer lines = system: melanoma cancer lines; set-up: method as in PMID 28928884; settings: alone or in combination with Trametinib; cited from earlier work
HsPLK1 = target: T3, HsPLK1 (Homo sapiens, UniProt P53350); assay: PLK1 kinase assay; type: biochemical; settings: Table 4
T3 construct: purchased ProQinase
T3 sequence (P53350 whole entry): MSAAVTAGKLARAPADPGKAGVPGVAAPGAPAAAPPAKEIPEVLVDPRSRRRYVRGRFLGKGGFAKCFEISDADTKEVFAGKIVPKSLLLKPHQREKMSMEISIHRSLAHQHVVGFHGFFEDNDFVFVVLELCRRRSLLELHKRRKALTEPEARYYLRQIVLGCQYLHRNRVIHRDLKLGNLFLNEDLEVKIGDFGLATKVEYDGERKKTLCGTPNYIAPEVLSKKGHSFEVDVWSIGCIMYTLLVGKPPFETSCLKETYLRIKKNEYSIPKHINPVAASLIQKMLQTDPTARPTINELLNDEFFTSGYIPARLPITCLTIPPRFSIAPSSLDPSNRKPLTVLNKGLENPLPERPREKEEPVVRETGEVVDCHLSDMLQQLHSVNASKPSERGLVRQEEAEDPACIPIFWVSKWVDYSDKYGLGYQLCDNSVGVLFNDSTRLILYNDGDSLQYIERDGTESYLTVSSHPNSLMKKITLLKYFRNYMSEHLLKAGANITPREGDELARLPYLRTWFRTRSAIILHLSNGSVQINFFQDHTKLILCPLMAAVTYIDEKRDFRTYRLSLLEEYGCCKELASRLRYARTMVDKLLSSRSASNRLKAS
Experimental: . We therefore tested our compounds on two obvious candidates, HsCDK1 and HsPLK1 (Polo-like_kinase 1) both required for mitotic entry[50] (Table 4).
as §1, §2

U-2 OS spheroids = assay: Spheroid (3D) viability, CellTiter-Glo; type: cell-based, human; settings: Homo sapiens, U2OS
HCT-116 cells xenografts = system: HCT-116 cells xenografts; set-up: method as in PMID 21804608; settings: nude mice xenografts of HCT-116 cells; cited from earlier work
HsHaspin = target: T4, HsHaspin (Homo sapiens, UniProt Q8TF76); assay: Recombinant Haspin kinase assay ([γ-33P]ATP, 15 µM ATP; some values ADP-Glo); type: biochemical; settings: average selectivity index over the protein kinases tested vs Haspin
T4 construct: aa470-798; made in house; host or cells: E. coli
T4 sequence (Q8TF76 470-798): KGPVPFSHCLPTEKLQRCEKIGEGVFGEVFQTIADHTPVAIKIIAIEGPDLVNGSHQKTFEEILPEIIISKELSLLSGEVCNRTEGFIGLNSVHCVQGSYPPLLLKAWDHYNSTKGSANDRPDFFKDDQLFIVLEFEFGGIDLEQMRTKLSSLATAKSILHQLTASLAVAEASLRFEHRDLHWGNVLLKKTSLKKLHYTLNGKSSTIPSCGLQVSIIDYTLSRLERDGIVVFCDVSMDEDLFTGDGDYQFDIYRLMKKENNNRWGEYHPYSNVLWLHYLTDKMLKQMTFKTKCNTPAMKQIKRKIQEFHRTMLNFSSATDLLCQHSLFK
Experimental: as §3, §4, §5, §6

Haspin = target: T5, Haspin (Homo sapiens, UniProt Q8TF76); assay: ATP competition assay on Haspin kinase activity; type: biochemical
T5 construct: aa470-798; made in house; host or cells: E. coli
Experimental: We first conducted an ATP competition assay with compound 12 on Haspin kinase activity (Figure 3(A)). We tested an ATP concentration range from 5 to 240 µM on compound 12 concentrations ranging from 0.001 to 10 µm.
Figure 3. Binding mode of selected compounds with Haspin. (A) ATP competition assay with compound 12. (B) Crystal structure of Haspin with compound 12. […] (C) Superimposition of the binding mode of compounds 12 (yellow carbon atoms) and 21 (grey carbon atoms) in Haspin active site. The three-letter amino acid code and residue number are labelled next to each side chain.

U-2 OS cells [3] = assay: Scratch wound cell migration assay (IncuCyte); type: cell-based, human; settings: 0.6 µM, 0.5% FBS, normalised against DMSO control (100%)
HsAurora B = target: T6, HsAurora B (Homo sapiens, UniProt Q96GD4); assay: Aurora B kinase assay; type: biochemical
T6 construct: purchased SignalChem
T6 sequence (Q96GD4 whole entry): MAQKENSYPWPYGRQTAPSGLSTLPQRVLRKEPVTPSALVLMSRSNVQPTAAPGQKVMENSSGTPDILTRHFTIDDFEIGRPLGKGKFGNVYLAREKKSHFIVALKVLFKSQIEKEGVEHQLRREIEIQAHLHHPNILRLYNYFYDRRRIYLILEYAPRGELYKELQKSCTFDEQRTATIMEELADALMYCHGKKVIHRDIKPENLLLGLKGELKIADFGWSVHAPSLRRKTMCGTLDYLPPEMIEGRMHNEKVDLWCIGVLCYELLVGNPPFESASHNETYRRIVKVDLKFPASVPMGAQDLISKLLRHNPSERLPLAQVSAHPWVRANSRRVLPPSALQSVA
Experimental: as §3
as §2, with “curves […]” for “curves”
as §6

[4] = 48 h, 2 days, Figure 4(B), read-out: U-2 OS spheroid remaining viability

Structure (SMILES): CCCNc1ccc2ncc(-c3ccc4[nH]ncc4c3)n2n1 [Compound 5, reference compound]
EC50 (HCT116): 9 µM
EC50 (SH-SY5Y): > 10 µM
IC50 (HsCDK1): 0.029 µM
HCT116 spheroid viability (HCT116 spheroids; 48 h): without any significant effect
HCT116 spheroid viability (HCT116 spheroids; 10 days): remained mostly unresponsive
H3T3ph signal remaining in prometaphase cells (% of ctrl) [1]: 2.5%
inhibition at 0.05 µM [1]: > 80%
HBL-100 spheroid viability (% of DMSO control) (HBL100 spheroids; 48 h): without any significant effect
HBL100 spheroid viability (HBL100 spheroids; 10 days): remained mostly unresponsive
IC50 (HsCdk2/Cyclin A): 0.091 µM
EC50 (HBL100): > 10 µM
EC50 (U-2 OS): 5.1 µM
EC50 (RPE-1): 3.8 µM
cells in S phase (% of cell total population) (U-2 OS cells [2]; 2.5 µM, 24 h, U-2 OS): 30.9%
cell cycle effect (in words) (U-2 OS cells [2]; Figure 2): Cell cycle arrest in G2/M
effect on cell viability and mobility of melanoma lines (melanoma cancer lines): affects also cell viability and mobility of several melanoma cancer lines
IC50 (HsPLK1): > 10 µM
viability at 5 µM (U-2 OS spheroids; [4]): 9.7%
viability at 5 µM (U-2 OS spheroids; 240 h, 10 days, Figure 4(A), read-out: U-2 OS spheroid viability (% of DMSO control)): 1%
viability at 5 µM (U-2 OS spheroids; 48 h, Figure 4(A), read-out: U-2 OS spheroid viability (% of DMSO control)): 49%
effect on angiogenesis and tumour growth (HCT-116 cells xenografts): reduced angiogenesis and tumour growth

average SI (HsHaspin): 24.2
EC50 (HCT116): > 10 µM
EC50 (SH-SY5Y): > 10 µM
SI CDK1/Haspin (HsCDK1; SI = IC50 CDK1/IC50 Haspin): 0.8
IC50 (HsCDK1; Table 4, read-out: IC50 HsCDK1): 0.052 µM
IC50 (HsCdk2/Cyclin A; read-out: IC50 CDK2): 0.11 µM
IC50 (Haspin; 5 µM ATP, read-out: IC50 Haspin at 5 µM ATP): 0.006 µM
IC50 (Haspin; 240 µM ATP, read-out: IC50 Haspin at 240 µM ATP): 0.95 µM
IC50 (HsPLK1): > 10 µM
Aurora B inhibition (in words) (HsAurora B): did not inhibit Aurora B kinase
Structure (SMILES): CC[C@H](CO)Nc1ccc2ncc(-c3ccc4[nH]ncc4c3)n2n1 [Compound 12]
H3T3ph signal remaining in prometaphase cells (% of ctrl) [1]: 1.9%
inhibition at 0.05 µM [1]: > 80%
EC50 (HBL100): 6.6 µM
EC50 (U-2 OS): > 10 µM
normalised wound closure after 24 h (U-2 OS cells [3]): 88%
EC50 (RPE-1): 6.8 µM
cells in G2/M phase (% of cell total population) (U-2 OS cells [2]; 2.5 µM, 24 h, U-2 OS, DMSO control 12.8%): 29.9%
cells in S phase (% of cell total population) (U-2 OS cells [2]; 2.5 µM, 24 h, U-2 OS): 34.4%
viability at 5 µM (U-2 OS spheroids; [4]): 13.1%
viability at 1 µM (U-2 OS spheroids; 240 h, 1 µM, 10 days, Figure 4(B), read-out: U-2 OS spheroid remaining viability): 66%
viability at 2.5 µM (U-2 OS spheroids; 240 h, 2.5 µM, 10 days, Figure 4(B), read-out: U-2 OS spheroid remaining viability): 50%

Source: publication PMC7580722, “Design of new disubstituted imidazo[1,2-b]pyridazine derivatives as selective Haspin inhibitors. Synthesis, binding mode and anticancer biological evaluation” (Journal of Enzyme Inhibition and Medicinal Chemistry, 2020)
